Source: US11117904B2, “Compositions and methods for the delivery of therapeutics” (ViiV Healthcare Company, priority 2016, dated 2021)

Key:
[1] = tested on: human monocyte derived macrophages (MDM); assay: Uptake and retention of drug in human monocyte derived macrophages (HPLC); type: cell-based
Description: Human monocytes were cultured in macrophage colony stimulating factor containing cell culture medium for 7-10 days in order to differentiate into macrophages (Balkundi et al. (2011) Intl. J. Nanomed., 6:3393-3404; Nowacek et al. (2009) Nanomed., 4(8):903-917). The macrophages were incubated with a range of formulations and native drugs. At each time point, adherent MDM were washed three times with 1 mL of PBS, scraped into 1 mL of fresh PBS and pelleted by centrifugation at 950×g for 8 minutes. The cell pellet was reconstituted in 200 μl of high performance liquid chromatography (HPLC)-grade methanol and probe sonicated followed by centrifugation at 20,000×g for 20 minutes. The supernatant was analyzed for drug content using HPLC (FIG. 2A and FIG. 2B). […] Human monocytes were cultured in macrophage colony stimulating factor containing cell culture medium for 7-10 days in order to differentiate into macrophages (Balkundi et al. (2011) Intl. J. Nanomed., 6:3393-3404; Nowacek et al. (2009) Nanomed., 4(8):903-917). The macrophages were incubated with a range of formulations and native drugs. At each time point, adherent monocyte-derived macrophage (MDM) were washed three times with 1 mL of PBS, scraped into 1 mL of fresh PBS and pelleted by centrifugation at 950×g for 8 minutes. […] The supernatant was analyzed for drug content using HPLC (FIGS. 4A and 4B). […]

[2] = Nanoparticle characterization by dynamic light scattering; type: physicochemical; settings: upon derivatization of native drug into prodrug
Description: Nanoformulations were characterized for particle size, polydispersity index (PDI) and zeta potential by dynamic light scattering (FIG. 1). This was done using a Malvern Zetasizer, Nano Series Nano-ZS (Malvern Instruments Inc., Westborough, Mass.). Nanoparticle morphology was determined by scanning electron microscopy (SEM). Ultra performance liquid chromatography tandem mass-spectrometry (UPLC MS/MS) was used for drug quantitation. […] Further, the improved hydrophobicity of MDTG facilitated production of stable formulations with high drug loading capacity. Nanoformulations were characterized for particle size, polydispersity index (PDI) and zeta potential by dynamic light scattering (DLS) (Table 1). This was done using a Malvern Zetasizer, Nano Series Nano-ZS (Malvern Instruments Inc, Westborough, Mass.). Nanoparticle morphology was determined by scanning electron microscopy (SEM). UPLC MS/MS was used for drug quantitation. […] The improved hydrophobicity of MCAB facilitated production of stable formulations with high drug loading capacity.

[3] = tested on: HIV-1ADA; assay: Antiretroviral activity in MDM challenged with HIV-1ADA (RT activity, HIV-1 p24 staining); type: cell-based; settings: MDM treated with 100 μM for 8 hours, challenged with HIV-1ADA at MOI 0.01; RT activity and p24
Description: MDM were treated with either 100 μM DTG, MDTG, P407-MDTG or FA-P407-MDTG for 8 hours. The cells were washed with PBS to remove excess of free drug and nanoparticles. The MDM were challenged with HIV-1ADA at a MOI of 0.01 infectious viral particles/cell for 18 hours on day 1, 5, 10 and 15. Progeny virion production was measured by reverse transcriptase (RT) activity in culture medium (Kalter et al. (1992) J. Clin. Microbiol., 30(4):993-995) (FIG. 2C). HIV-1 p24 protein antigen expression was assessed (Guo et al. (2014) J. Virol., 88(17):9504-9513). The MDM were washed with PBS and fixed with 4% paraformaldehyde for 15 minutes at room temperature. The cells were blocked using 10% BSA containing 1% Triton X-100 in PBS for 30 minutes at room temperature. Following blocking, cells were incubated with HIV-1 p24 mouse monoclonal antibodies (1:50; Dako, Carpinteria, Calif., USA) for overnight at 4° C., followed by 1 hour incubation at room temperature. […]
MDM were treated with either 100 μM CAB long acting parenteral (CAB-LAP), P407-CAB, P407-MCAB or FA-P407-MCAB for 8 hours. […] Progeny virion production was measured by reverse transcription (RT) activity in culture medium (Kalter et al. (1992) J. Clin. Microbiol., 30(4):993-995). HIV-1 p24 protein antigen expression was assessed (Guo et al. (2014) J. Virol., 88(17):9504-9513) (FIG. 4C). […]

intracellular accumulation of the drug ([1]; MDM, compared to CAB-LAP) | hydrophobicity [2] | MDM retention ([1]; cellular retention in MDM) | SMILES | antiretroviral efficacy [3]
significantly improved | greatly improved | – | CCCCCCCCCCCCCC(=O)Oc1c2n(cc(C(=O)NCc3ccc(F)cc3F)c1=O)CC1OCC(C)N1C2=O (centres unmarked) [MCAB] | –
– | greatly improved | significant enhancements | CCCCCCCCCCCCCC(=O)Oc1c2n(cc(C(=O)NCc3ccc(F)cc3F)c1=O)C[C@@H]1OCC[C@@H](C)N1C2=O [MDTG] | significant enhancements
